Source: patent US11896591B2, “Compositions and methods for preparing and using mitochondrial uncouplers” (UNIVERSITY OF VIRGINIA PATENT FOUNDATION, priority 2017, dated 2024)

Test system: whole cells
Test: Oxygen consumption rate (OCR) in whole cells, Seahorse XF-24 Flux Analyzer
Assay type: cell-based
Details: binned EC50 values; increase in oxygen consumption rate in whole cells
Description: Biological activities of the compounds synthesized is determined by determining increase in oxygen consumption rate (OCR).
OCR is measured using a Seahorse XF-24 Flux Analyzer (Seahorse Biosciences, North Billerica, MA). NMuLi, C2C12, and L6 cells are seeded in a Seahorse 24-well tissue culture plate at a density of 3.5×10^4 cells/well, isolated cardiomyocytes at a density of 4×10^4 cells/well, and human primary fibroblasts at a density of 1.1×10^4 cells/well. The cells are then allowed to adhere for 24 h. […] Compounds are injected during the assay and OCR is measured using 2 min measurement periods.
2-3 wells are used per condition and averaged over three plates (n=6-9). Statistical significance is determined by two-way ANOVA with Bonferroni's posttest.

SMILES | EC50 [µM]
Fc1c(Nc2nc3nonc3nc2Nc2cccc(C(F)(F)F)c2F)cccc1C(F)(F)F [Compound 3aa, N^5,N^6-bis(2-fluoro-3-(trifluoromethyl)phenyl)-[1,2,5]oxadiazolo[3,4-b]pyrazine-5,6-diamine] | < 5
Fc1cc(Nc2nc3nonc3nc2Nc2ccc(OC(F)(F)F)c(F)c2)ccc1OC(F)(F)F [Compound 3bb, N^5,N^6-bis(3-fluoro-4-(trifluoromethoxy)phenyl)-[1,2,5]oxadiazolo[3,4-b]pyrazine-5,6-diamine] | < 5
Cc1ccc(Nc2nc3nonc3nc2Nc2ccc(C)cc2)cc1 [Compound 3c, N^5,N^6-di-p-tolyl-[1,2,5]oxadiazolo[3,4-b]pyrazine-5,6-diamine] | 5 to 20
c1ccc(Nc2nc3nonc3nc2Nc2ccccc2)cc1 [Compound 3ee, N^5,N^6-diphenyl-[1,2,5]oxadiazolo[3,4-b]pyrazine-5,6-diamine] | < 5
CCOc1cccc(Nc2nc3nonc3nc2Nc2cccc(OCC)c2)c1 [Compound 3h, N^5,N^6-bis(3-ethoxyphenyl)-[1,2,5]oxadiazolo[3,4-b]pyrazine-5,6-diamine] | 5 to 20
FC(F)(F)Oc1cccc(Nc2nc3nonc3nc2Nc2cccc(OC(F)(F)F)c2)c1 [Compound 3l, N^5,N^6-bis(3-(trifluoromethoxy)phenyl)-[1,2,5]oxadiazolo[3,4-b]pyrazine-5,6-diamine] | < 5
FC(F)(F)c1cccc(Nc2nc3nonc3nc2Nc2cccc(C(F)(F)F)c2)c1 [Compound 3r, N^5,N^6-bis(3-(trifluoromethyl)phenyl)-[1,2,5]oxadiazolo[3,4-b]pyrazine-5,6-diamine] | < 5
FC(F)(F)c1ccc(Nc2nc3nonc3nc2Nc2ccc(C(F)(F)F)cc2)cc1 [Compound 3s, N^5,N^6-bis(4-(trifluoromethyl)phenyl)-[1,2,5]oxadiazolo[3,4-b]pyrazine-5,6-diamine] | < 5
Fc1cc(C(F)(F)F)ccc1Nc1nc2nonc2nc1Nc1ccc(C(F)(F)F)cc1F [Compound 3w, N^5,N^6-bis(2-fluoro-4-(trifluoromethyl)phenyl)-[1,2,5]oxadiazolo[3,4-b]pyrazine-5,6-diamine] | < 5

More lines, now with the values ahead:

EC50 [µM] | SMILES
> 20 | Cc1ccccc1Nc1nc2nonc2nc1Nc1ccccc1C [Compound 3a, N^5,N^6-di-o-tolyl-[1,2,5]oxadiazolo[3,4-b]pyrazine-5,6-diamine]
< 5 | Cc1cccc(Nc2nc3nonc3nc2Nc2cccc(C)c2)c1 [Compound 3b, N^5,N^6-di-m-tolyl-[1,2,5]oxadiazolo[3,4-b]pyrazine-5,6-diamine]
< 5 | Fc1cc(F)cc(Nc2nc3nonc3nc2Nc2cc(F)cc(F)c2)c1 [Compound 3cc, N^5,N^6-bis(3,5-difluorophenyl)-[1,2,5]oxadiazolo[3,4-b]pyrazine-5,6-diamine]
> 20 | COc1cccc(Nc2nc3nonc3nc2Nc2cccc(OC)c2)c1 [Compound 3e, N^5,N^6-bis(3-methoxyphenyl)-[1,2,5]oxadiazolo[3,4-b]pyrazine-5,6-diamine]
< 5 | FC(F)(F)Oc1ccccc1Nc1nc2nonc2nc1Nc1ccccc1OC(F)(F)F [Compound 3k, N^5,N^6-bis(2-(trifluoromethoxy)phenyl)-[1,2,5]oxadiazolo[3,4-b]pyrazine-5,6-diamine]
< 5 | Fc1cccc(Nc2nc3nonc3nc2Nc2cccc(F)c2)c1 [Compound 3n, N^5,N^6-bis(3-fluorophenyl)-[1,2,5]oxadiazolo[3,4-b]pyrazine-5,6-diamine]
< 5 | FC(F)(F)c1ccccc1Nc1nc2nonc2nc1Nc1ccccc1C(F)(F)F [Compound 3q, N^5,N^6-bis(2-(trifluoromethyl)phenyl)-[1,2,5]oxadiazolo[3,4-b]pyrazine-5,6-diamine]
< 5 | COC(=O)c1ccc(Nc2nc3nonc3nc2Nc2ccc(C(=O)OC)cc2)cc1 [Compound 3t, Dimethyl 4,4′-([1,2,5]oxadiazolo[3,4-b]pyrazine-5,6-diylbis(azanediyl))dibenzoate]
